Laboratory results: PMC4321988, “Engineering of Helicobacter pylori L-Asparaginase: Characterization of Two Functionally Distinct Groups of Mutants” (PLoS ONE, 2015)
Where two headings read alike, the source gives them in different places.

Assays:
[1] = biological target: T1, HpASNase (Helicobacter pylori CCUG 17874 type II L-asparaginase) (Helicobacter pylori, UniProt O25424); assay: glutamate dehydrogenase-coupled NADH assay, […] nm; assay type: biochemical; conditions: 50 mM HEPES pH 7.5, 37°C
T1 construct: gene ansA; recombinant, E. coli BL21(DE3) pLysS, plasmid pDC1 (pET101 D-TOPO derivative), His-tag kept (given as N-terminal), 37 kDa band, tetramer
T1 sequence (O25424 whole entry): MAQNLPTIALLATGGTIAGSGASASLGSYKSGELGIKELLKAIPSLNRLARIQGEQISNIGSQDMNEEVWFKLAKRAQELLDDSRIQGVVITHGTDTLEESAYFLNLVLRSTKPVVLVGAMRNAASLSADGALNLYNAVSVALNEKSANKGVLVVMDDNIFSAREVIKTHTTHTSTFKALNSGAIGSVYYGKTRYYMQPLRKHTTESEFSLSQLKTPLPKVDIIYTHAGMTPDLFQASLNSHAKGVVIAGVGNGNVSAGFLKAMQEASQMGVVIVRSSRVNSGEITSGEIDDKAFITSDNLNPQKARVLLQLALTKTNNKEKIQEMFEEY

[2] = biological target: Helicobacter pylori CCUG 17874 type II L-asparaginase T16D mutant (Helicobacter pylori CCUG 17874); assay: SEC; analytical gel filtration of the purified mutant; data not shown; conditions not given
[3] = biological target: Helicobacter pylori CCUG 17874 type II L-asparaginase T95E mutant (Helicobacter pylori CCUG 17874); assay: as above

NC(=O)C[C@H](N)C(=O)O [L-asparagine]
Km ([1]; read-out: L-asparagine / S0.5, nH 1.0): 0.29 ± 0.03 mM

NC(=O)CC[C@H](N)C(=O)O [L-glutamine]
Km ([1]; read-out: L-glutamine / S0.5, nH 2.0): 46.4 ± 4.02 mM

Helicobacter pylori CCUG 17874 type II L-asparaginase T16D mutant (enzyme)
stoichiometry N [2]: 4

Helicobacter pylori CCUG 17874 type II L-asparaginase T95E mutant (enzyme)
stoichiometry N [3]: 4
